Measurements: PMC9304124 (Clinical Pharmacology in Drug Development, 2022)
Where two headings read alike, the source gives them in different places. One block for each compound: values may come before it.

How the values were obtained:
[1] = basis for study design, no reference given; cited from earlier work
[2] = Steady-state plasma PK of NE and EE, NE/EE given alone or with trametinib (phase 1 DDI study); conditions: for AUC(0-t): AUClast; for AUC: AUCtau
[3] = design: method as in PMID 23971497; conditions: human plasma; cited from earlier work
[4] = system: phospho‐MEK1; design: method as in PMID 23971497; conditions: in vitro; read-out: half maximal inhibitory concentration to inhibit phospho‐MEK1; cited from earlier work
[5] = clinical; conditions: female, human, plasma, oral
[6] = system: CYP3A4; design: method as in PMID 24748562; conditions: in vitro; read-out: EC50 for CYP3A4 mRNA induction; cited from earlier work
[7] = system: CYP2D6; design: method as in PMID 26347206, PMID 31445021; conditions: in vitro; cited from earlier work
[8] = cited from earlier work
[9] = system: CYP3A4; conditions: in vitro, cited from earlier work
[10] = system: CYP3A4; design: method as in PMID 26347206, PMID 31445021; conditions: in vitro; cited from earlier work
[11] = system: CYP2A6; design: method as in PMID 26347206, PMID 31445021; conditions: in vitro; cited from earlier work
[12] = overall study, N = 19
[13] = system: UGT1A1; design: method as in PMID 26347206, PMID 31445021; conditions: in vitro; cited from earlier work
[14] = system: CYP2B6; design: method as in PMID 26347206, PMID 31445021; conditions: in vitro; cited from earlier work
[15] = Steady-state plasma PK of trametinib and metabolite M5 when coadministered with NE/EE; conditions: trametinib 2 mg daily + NE/EE, day 21, plasma
Procedure: Both regimens were continued until day 21 (Figure 1).
Extracts were analyzed using LC‐MS/MS.

[16] = system: CYP1A2; design: method as in PMID 26347206, PMID 31445021; conditions: in vitro; cited from earlier work
[17] = design: method as in Novartis, unpublished data; conditions: ref Novartis, unpublished data; cited from earlier work
[18] = female, human, plasma, oral, adjusted geo‐mean, NE/EE + T, linear mixed-effects model
[19] = female, human, plasma, oral, adjusted geo‐mean, NE/EE alone, linear mixed-effects model
[20] = female, human, plasma, oral, geo‐mean (geo‐CV%), NE/EE alone, day 5, plasma
[21] = female, human, plasma, oral, mean (SD), NE/EE alone, day 5, plasma

Ctrough, mean (SD) ([2]; NE/EE alone, day 5, plasma): 22.2 (12.6) pg/mL
AUCtau, adjusted geo‐mean ([2]; NE/EE alone, linear mixed-effects model): 1060 pg·h/mL
AUC(0-t) [2, 18]: 1.07 ng·h/mL
AUC(0-t) [2, 19]: 1.02 ng·h/mL
AUC(0-t) [2, 20]: 0.983 ng·h/mL
AUC(0-t) [2, 21]: 1.15 ng·h/mL
AUC [2, 18]: 1.12 ng·h/mL
AUC ([2]; female, human, plasma, oral, geo‐mean (geo‐CV%), NE/EE alone (1 mg NE/0.035 mg EE daily), day 5, plasma): 1.02 ng·h/mL
AUC [2, 21]: 1.16 ng·h/mL
Cmax [2, 18]: 0.128 ng/mL
Cmax [2, 19]: 0.14 ng/mL
Cmax [2, 20]: 0.135 ng/mL
Cmax [2, 21]: 0.151 ng/mL
Tmax ([2]; female, human, plasma, oral, tmax, median (range), NE/EE alone, day 5, plasma): 58.8 min
SMILES: C#C[C@]1(O)CC[C@H]2[C@@H]3CCc4cc(O)ccc4[C@H]3CC[C@@]21C [EE, ethinyl estradiol]
mean t1/2 [1]: 20 h

SMILES: Cc1c(=O)n(C)c(Nc2ccc(I)cc2F)c2c(=O)n(C3CC3)c(=O)n(-c3cccc(N)c3)c12 [M5]
share of drug‐related material in plasma [3]: < 11%
IC50 [4]: 9 ± 1 nM

CL/F, geo‐mean (geo‐CV%) ([2]; NE/EE alone, day 5, plasma): 9.41 (76.9) L/h
Ctrough, geo‐mean (geo‐CV%) ([2]; NE/EE alone, day 5, plasma): 1060 (165.5) pg/mL
Ctrough, mean (SD) ([2]; NE/EE alone, day 5, plasma): 1940 (2850) pg/mL
tmax, median (range) ([2]; NE/EE alone, day 5, plasma): 1.00 (0.50‐24) h
AUC(0-t) [2, 18]: 127 ng·h/mL
AUC(0-t) [2, 19]: 106 ng·h/mL
AUC [2, 18]: 131 ng·h/mL
AUC [2, 19]: 110 ng·h/mL
Cmax [2, 18]: 17.1 ng/mL
Cmax [2, 19]: 15.2 ng/mL
half-life ([2]; female, human, plasma, oral, t½, median (range), NE/EE alone, day 5, plasma): 553 min
Tmax [5]: 1.02 h
half-life [5]: 544 min
SMILES: C#C[C@]1(O)CC[C@H]2[C@@H]3CCC4=CC(=O)CC[C@@H]4[C@H]3CC[C@@]21C [NE, norethindrone]

SMILES: CC(=O)Nc1cccc(-n2c(=O)n(C3CC3)c(=O)c3c(Nc4ccc(I)cc4F)n(C)c(=O)c(C)c32)c1 [trametinib, Trametinib]
CYP2D6 inhibition (in words) [7]: no inhibitory activity
peak:trough ratio ([8]; 2 mg once daily): 1.8
time to reach Cmax (tmax) ([8]; 2 mg once daily): 1.5 h
clinically relevant systemic exposure (concentration) ([8]; based on the Cmax of 22.2 ng/mL): ≈ 0.04 μM
intrasubject variability [8]: more than 30%
geo‐mean AUC0‐24 ([8]; trametinib 2 mg in the absence of COC): 370 ng·h/mL
maximal effect of CYP3A4 induction, % of that of rifampicin ([9]; hepatocytes, ref Novartis, unpublished data): 69%
EC50 ([9]; hepatocytes, ref Novartis, unpublished data, read-out: EC50 for CYP3A4 induction): 1700 nM
CYP3A4 induction (in words) [9]: low‐level inducer
CYP3A4 inhibition (in words) [10]: no inhibitory activity
CYP2A6 inhibition (in words) [11]: no inhibitory activity
AE of special interest: patients with bleeding events [12]: 15.8%
AE of special interest: patients with cardiac‐related event [12]: 5.3%
AE of special interest: patients with hepatic disorders [12]: 26.3%
AE of special interest: patients with hypertension [12]: 15.8%
AE of special interest: patients with skin toxicity [12]: 63.2%
UGT1A1 inhibition (in words) [13]: inhibitor
IC50 [4]: 7 ± 0.1 nM
CYP2B6 inhibition (in words) [14]: no inhibitory activity
Cmax, geo‐mean (geo‐CV%) [15]: 27.4 (35.4) ng/mL
CYP1A2 inhibition (in words) [16]: no inhibitory activity
findings in animal reproduction studies (in words) [17]: maternal and developmental toxicities
